Source: paper PMC12146338, “Bioanalytical assay for the quantification of rucaparib in rat plasma using UPLC-MS/MS: development, and validation for interaction with myricetin” (Frontiers in Pharmacology, 2025)

Experiments:
[1] = Drug-drug interaction (DDI) pharmacokinetic study of rucaparib with or without myricetin in rats
Experimental: Twelve Sprague-Dawley (SD) male rats were provided with an appropriate environment with unrestricted water and food for seven consecutive days prior to the experiment. The day prior to the study, the rats underwent a 12-h period of fasting while being allowed unfettered access to water. Subsequently, they were randomly assigned to two groups (n = 6). Group A was received an oral dose of rucaparib at 20 mg/kg, while Group B was received an oral administration of rucaparib at 20 mg/kg along with myricetin at 50 mg/kg. The doses of rucaparib ([Augustine et al., 2019]) and myricetin ([Ye et al., 2024]) administered were determined based on prior literatures. Rucaparib was formulated in corn oil with myricetin prepared in 0.5% carboxymethylcellulose sodium (CMC-Na) solution. Group B rats were administered a single gavage of 50 mg/kg of myricetin, while Group A rats were received an equivalent volume of CMC-Na solution. Subsequently, at the 30 min mark, both groups were administered a single dose of 20 mg/kg of rucaparib. Before dosing (designated as 0 h) and at 1.5, 3, 4, 5, 6, 8, 12, 24 and 36 h post-dosing, 0.3 mL of plasma samples were drawn from the caudal vein. These samples were collected into heparin-containing tubes and then centrifuged at 8,000 rpm at 4°C for 10 min. Afterwards, the plasma was transferred to new tubes and preserved at −80°C for further analysis.
The DAS 3.0 software was used to calculate the pharmacokinetic parameters of rucaparib using a non-compartmental model. The key pharmacokinetic parameters of the two groups were analyzed using an independent samples t-test in SPSS 24.0. The p-value of less than 0.05 indicated a significant difference between the two groups. Mean plasma concentration-time curves were generated with GraphPad Prism 9.0 software (GraphPad Software Inc., California, United States).

CYP2D6 = tested on: CYP2D6; parameters: method as in Lee et al., 2012; conditions: ref Lee et al., 2012; read-out: half-maximal inhibitory concentrations value, CYP2D6 metabolism; cited from earlier work
[2] = parameters: method as in Ross and Kasum, 2002; conditions: ref Ross and Kasum, 2002; cited from earlier work
[3] = Stability of rucaparib in rat plasma under different storage conditions (UPLC-MS/MS); type: in vitro ADME; conditions: n = 5
Experimental: The stability experiment was conducted at three different QCs (5.0, 200, and 400 ng/mL). It was carried out under various storage conditions, with each condition having five replicates (n = 5). These storage conditions encompassed stability within the analyzer (lasting for 4 h at 10°C), long-term storage (for 3 weeks at −80°C), short-term storage (for 3 h at room temperature) and freeze-thaw cycles (conducted three times).
The stability of rucaparib in rat plasma was examined under four distinct storage conditions. These included short-term storage (lasting 3 h at room temperature), exposure to three freeze-thaw cycles (transitioning from −80°C to room temperature), long-term storage (at −80°C for 21 days), and a 4 h placement in an autosampler maintained at 10°C.

[4] = male, Sprague-Dawley, rat, in vivo, po, 20 mg/kg

## O=c1c(O)c(-c2cc(O)c(O)c(O)c2)oc2cc(O)cc(O)c12 [myricetin]
[1]; rats, 50 mg/kg myricetin + 20 mg/kg rucaparib vs rucaparib alone, independent samples t-test, p < 0.05
  effect on plasma exposure to rucaparib: no significant effect
CYP2D6
  IC50: 57 µM
[2]
  bioavailability: low bioavailability

## CNCc1ccc(-c2[nH]c3cc(F)cc4c3c2CCNC4=O)cc1 [Rucaparib]
[1]; [4]
  AUC(0-inf): 1320 ng·h/mL
  AUC(0-t): 1220 ng·h/mL
  CL/F: 294 mL/min/kg
  Cmax: 126 ± 58.5 ng/mL
  Tmax: 4.25 ± 1.78 h
  half-life: 10.9 ± 3.41 h
[3]; added 5.0 ng/mL, Autosampler 10°C, 4 h
  Stability RE (%): 1.5%
[3]; added 5.0 ng/mL, Room temperature, 3 h
  Stability RE (%): −4.2%
[3]; added 5.0 ng/mL, Three freeze-thaw
  Stability RE (%): −10.1%
[3]; added 5.0 ng/mL, −80°C, 3 weeks
  Stability RE (%): 5.7%
[3]; added 200 ng/mL, Autosampler 10°C, 4 h
  Stability RE (%): 1.4%
[3]; added 200 ng/mL, Room temperature, 3 h
  Stability RE (%): −11.5%
[3]; added 200 ng/mL, Three freeze-thaw
  Stability RE (%): −1.6%
[3]; added 200 ng/mL, −80°C, 3 weeks
  Stability RE (%): 9.2%
[3]; added 400 ng/mL, Autosampler 10°C, 4 h
  Stability RE (%): 8.1%
[3]; added 400 ng/mL, Room temperature, 3 h
  Stability RE (%): −3.1%
[3]; added 400 ng/mL, Three freeze-thaw
  Stability RE (%): −11.6%
[3]; added 400 ng/mL, −80°C, 3 weeks
  Stability RE (%): 1.4%
